The source of these data is PMC7412550 (Viruses, 2020).

One data set in a line: in vitro. To be noted: human.
Another data set deals with VSV/HIV-1GFP. The format is cell-based.
The next data set has as its target HIV-1 RT RNase H. To be noted: Table S2; biologic data previously reported; cited from earlier work.
The subject of the next data set is HIV-1 NL4.3 wt. Conditions: for SI (selectivity index): ratio between the CC50 and the EC50; for EC50: read-out: HIV-1 wt MT EC50, HIV-1 NL4.3 wt, MT4 cells, MTT, 5 days post infection, mean and SD of three experiments.
The next data set deals with HIV-1 IN. More on the design: method as in ref 30 = [30]. To be noted: enzymatic assay; cited from earlier work.
The target of data set [1] is HIV-1 RT-associated RNase H (wt RT) (Human immunodeficiency virus type 1 group M subtype B, UniProt P04585). The experiment in a line: HIV-1 DNA polymerase-independent RNase H activity, wt RT.
Data set [2] has as its target HIV-1 RT-associated RDDP activity (wt RT) (Human immunodeficiency virus type 1 group M subtype B, UniProt P04585). The experiment in a line: HIV-1 RNA-dependent DNA polymerase (RDDP) activity. The format is biochemical.
The subject of another data set is MT4 cells. To be noted: read-out: MT4 CC50; non-infected MT4 cells, MTT.
Data set [3] deals with T1, R448A RT RNase H (Human immunodeficiency virus type 1 group M subtype B, UniProt P04585, R1035A). In words: HIV-1 DNA polymerase-independent RNase H activity, R448A RT. Conditions: RNase H function; p-value 0.5545.
In data set [4] the target is T1, R448A RT RNase H. Also on record: method as in ref 26,27 = [26]. Conditions: RNase H function; cited from earlier work.
The target in data set [5] is T2, R557A RT RNase H (Human immunodeficiency virus type 1 group M subtype B, UniProt P04585, R1144A). The experiment in a line: HIV-1 DNA polymerase-independent RNase H activity, R557A RT. To be noted: RNase H function; p-value 0.9682.
The target of data set [6] is T2, R557A RT RNase H. More on the design: method as in ref 26,27 = [26]. Conditions: RNase H function; cited from earlier work.
In the next data set the target is Q475A RT RNase H (Human immunodeficiency virus type 1 group M subtype B, UniProt P04585, Q1062A). The experiment in a line: HIV-1 DNA polymerase-independent RNase H activity, Q475A RT. Conditions: RNase H function; p-value = 0.0008.

A word on the IC50: it is the concentration needed to halve the response being measured. The molecule `O=C(N/N=C/c1cc(O)c(O)cc1O)c1cc(O)c(O)c(O)c1` [Compound 21] registered a CC50 in “in vitro” of 31.8 ± 0.4 µM. Also, the time-of-addition behaviour entry with VSV/HIV-1GFP is on record as “retained its potency over time”. At HIV-1 RT RNase H, the IC50 was 0.62 ± 0.1 µM. The “SI (selectivity index)” value in the data set on HIV-1 NL4.3 wt was 6.4. For the same molecule, the “activity against HIV-1 IN” value in the data set on HIV-1 IN is recorded as “inhibited”.

What is called EC50 is the concentration needed to bring the measured effect to its halfway point. Consider `O=C(N/N=C/c1ccccc1O)c1cc(O)c(O)c(O)c1` [Compound 13, N’-(2-hydroxy-benzylidene)-3,4,5-trihydroxybenzoylhydrazone], for which the IC50 was 6.9 µM in data set [1] (RNase H IC50 against wt enzyme (site-directed mutagenesis study, Figure 4), determined in parallel with mutants); 3.6 µM in [1] (RT-associated RNase H activity IC50 (comparative inhibition, Figure 2B), inhibitor and substrate added before the enzyme (competition)); 2.32 ± 0.75 µM at HIV-1 RT RNase H; 81 µM in [2] (wt RT, inhibitor and substrate added before the enzyme (competition)). This molecule registered a CC50 in the data set “in vitro” of 61.5 ± 2.2 µM. Moreover, the “time after infection at which activity is lost (time-of-addition)” value in the data set on VSV/HIV-1GFP amounted to 6 h. Also, the “inhibitory effect on RDDP activity at 25 μM” value in [2] (25 μM) is listed as “no inhibitory effect”. The “fold less potent against RT polymerase activity than RNase H function” value in [2] (RDDP vs RNase H) is given as above 20 fold. In addition, the “SI (selectivity index)” value with HIV-1 NL4.3 wt is recorded as 6.1. Also, the EC50 with HIV-1 NL4.3 wt was determined as 10.1 ± 4.7 µM. Moreover, in the data set with HIV-1 IN, the “activity against HIV-1 IN” value was “inactivity”.

In the case of `CCOC(=O)C(=O)CC(=O)/C=C/c1cccn1Cc1ccccc1Cl` [RDS1759], the CC50 in the data set on MT4 cells is 39 ± 4.4 µM. In addition, on R448A RT RNase H [3], the “potency of inhibition on R448A RT compared to wt RT” value was “not significantly affected”. In the data set with HIV-1 NL4.3 wt, the “SI (selectivity index)” value is 4.7 and the EC50 is 8.2 ± 0.9 µM. In addition, at R448A RT RNase H [4], the “activity against R448A HIV-1 RT” value is given as “fully active”. In addition, the “potency of inhibition on R557A RT compared to wt RT” value at R557A RT RNase H [5] is on record as “not significantly affected”. Moreover, the “activity against R557A HIV-1 RT” value at R557A RT RNase H [6] is reported as “fully active”. In addition, the “potency of inhibition on Q475A RT compared to wt RT” value at Q475A RT RNase H was “significantly lost its potency”.

In “in vitro”, `O=C1Nc2ccc(Cl)cc2[C@@](C#CC2CC2)(C(F)(F)F)O1` [EFV, efavirenz] displayed a CC50 above 0.31 µM. Also, the “SI (selectivity index)” value in the data set with HIV-1 NL4.3 wt was above 6.25.

Turning to `CC(C)c1ccc(O)c(=O)c(O)c1` [beta-thujaplicinol], on R448A RT RNase H [4], the “activity against R448A HIV-1 RT” value is recorded as “fully active”. The “activity against R557A HIV-1 RT” value on R557A RT RNase H [6] is “fully active”.

The molecule `Cc1nnc(C(=O)NC(C)(C)c2nc(C(=O)NCc3ccc(F)cc3)c(O)c(=O)n2C)o1` [RAL, raltegravir] came in with a CC50 in “in vitro” above 2.25 µM. In addition, in the data set with VSV/HIV-1GFP, the time-of-addition behaviour result was “retained its potency over time”.

In the case of `Cc1ccnc2c1NC(=O)c1cccnc1N2C1CC1` [NVP, nevirapine], the CC50 in “in vitro” was above 3.7 µM. Moreover, the “SI (selectivity index)” value in the data set on HIV-1 NL4.3 wt is above 5.5.

Consider `Cc1cn([C@H]2C[C@H](N=[N+]=[N-])[C@@H](CO)O2)c(=O)[nH]c1=O` [AZT, azidothymidine], for which the CC50 in the data set “in vitro” was above 3.7 µM. Besides, the “SI (selectivity index)” value in the data set on HIV-1 NL4.3 wt is on record as above 500.
